Experimental data taken from US12371454B2, “Cyclic peptide compound having Kras inhibitory action” (priority 2019, dated 2025).
Starred links: 1 amine or outer side, 2 acyl side, 3 side chain; linkers in the order of their positions; H or OH if unused. Positions of bridges follow the written chain, without caps; N, C: chain ends. Non-standard residues stand in square brackets, D forms with d. Residues, ends and D or L forms follow the SMILES beside them. *: point of attachment. NMeAbu(3,3-F2-piperidino) = CN[C@@H](CCN1CCCC(F)(F)C1)C(=O)O; hPhe(3-Cl-4-CF3) = N[C@@H](CCc1ccc(C(F)(F)F)c(Cl)c1)C(=O)O; NMePhe(4-CF3) = CN[C@@H](Cc1ccc(C(F)(F)F)cc1)C(=O)O; hPhe(4-CF3) = N[C@@H](CCc1ccc(C(F)(F)F)cc1)C(=O)O; NMePhe(4-Br) = CN[C@@H](Cc1ccc(Br)cc1)C(=O)O; NMePhe(4-Cl) = CN[C@@H](Cc1ccc(Cl)cc1)C(=O)O; NMePhe(4-Me) = CN[C@@H](Cc1ccc(C)cc1)C(=O)O; NMePhe(4-F) = CN[C@@H](Cc1ccc(F)cc1)C(=O)O; NMePhe(4-I) = CN[C@@H](Cc1ccc(I)cc1)C(=O)O; NMedβ3hAla = C[C@H](CC(=O)[*:2])N(C)[*:1]; Abu(4,4,4-F3) = N[C@@H](CC(F)(F)F)C(=O)O; NMeGly(cPent) = CN[C@H](C(=O)O)C1CCCC1; Phe(3-I) = N[C@@H](Cc1cccc(I)c1)C(=O)O; NMe3Pal = CN[C@@H](Cc1cccnc1)C(=O)O; NMeCha = CN[C@@H](CC1CCCCC1)C(=O)O; NMeChg = CN[C@H](C(=O)O)C1CCCCC1; NMeI = CC[C@H](C)[C@H](NC)C(=O)O; NMeD = CN[C@@H](CC(=O)O)C(=O)O; NMeL = CN[C@@H](CC(C)C)C(=O)O; NMeV = CN[C@H](C(=O)O)C(C)C; NMeS = CN[C@@H](CO)C(=O)O; NMeA = CN[C@@H](C)C(=O)O; NMeAib = CNC(C)(C)C(=O)O; Piperidide = C1CCN(*)CC1; Pra = C#CC[C@H](N)C(=O)O; Pyrrolidide = C1CCN(*)C1; Ac5c = NC1(C(=O)O)CCCC1; Aze = O=C(O)[C@@H]1CCN1; X47 = Fc1cncc(C*)c1; Sar = CNCC(=O)O

Biological target: T1, Kras and SOS1 (biotin-tagged human Kras loaded with GDP, His-tagged human SOS1) (Homo sapiens, UniProt P01116, G12D)
T1 construct: made in house; host or cells: E. coli (stated for Kras only)
Test: Protein-protein interaction inhibition between Kras and SOS1 (KrasGl2D-SOS PPI) using AlphaScreen
Assay type: binding
Settings: AlphaScreen; biotin-tagged human Kras loaded with GDP, His-tagged human SOS1; read-out: KRAS G12D-SOS PPI IC50
Outline: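 Kras was produced in E. coli, purified, then loaded with GDP. It was paired via streptavidin acceptor beads with His-SOS1 held on nickel donor beads, and proximity signal at 520-620 nm was read after 680 nm illumination.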

T1 sequence (P01116 1-188 isoform P01116-2 G12D): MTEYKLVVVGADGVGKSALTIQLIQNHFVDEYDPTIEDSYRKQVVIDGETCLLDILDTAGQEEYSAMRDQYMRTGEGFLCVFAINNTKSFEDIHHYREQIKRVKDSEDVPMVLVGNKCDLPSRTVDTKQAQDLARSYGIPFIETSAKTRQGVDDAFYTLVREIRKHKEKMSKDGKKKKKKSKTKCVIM

SMILES	IC50 [nM]
CC[C@H](C)[C@@H]1NC(=O)[C@H](CC(C)C)N(C)C(=O)C[C@@H](C(=O)N2CCCCC2)N(C)C(=O)[C@H](C2CCCCC2)N(C)C(=O)C2(CCCC2)NC(=O)[C@H](Cc2cccnc2)N(C)C(=O)[C@H](CCc2ccc(C(F)(F)F)c(Cl)c2)NC(=O)CN(C)C(=O)[C@H](CC2CCCCC2)N(C)C(=O)CN(C)C(=O)CN(C)C1=O [Compound 63] ([NMeL]I[Sar][Sar][NMeCha][Sar][hPhe(3-Cl-4-CF3)][NMe3Pal][Ac5c][NMeChg][NMeD]-Piperidide; lactam N-11)	3.7
CC(C)C[C@H]1C(=O)N[C@@H](CC(F)(F)F)C(=O)N(C)[C@@H](C)C(=O)N2CC[C@H]2C(=O)N(C)[C@@H](CC2CCCCC2)C(=O)N(C)CC(=O)N[C@@H](CCc2ccc(C(F)(F)F)c(Cl)c2)C(=O)N2CCC[C@H]2C(=O)NC2(CCCC2)C(=O)N(C)[C@@H](C(C)C)C(=O)N(C)[C@H](C(=O)N2CCCCC2)CC(=O)N1C [Compound 1864] ([NMeL][Abu(4,4,4-F3)][NMeA][Aze][NMeCha][Sar][hPhe(3-Cl-4-CF3)]P[Ac5c][NMeV][NMeD]-Piperidide; lactam N-11)	48
CC[C@H](C)[C@@H]1NC(=O)[C@H](C)N(C)C(=O)C[C@@H](C(=O)N2CCCC2)NC(=O)[C@H](CC(C)C)N(C)C(=O)[C@H](COCc2cncc(F)c2)N(C)C(=O)[C@H](CC(C)C)NC(=O)[C@H](CCc2ccc(C(F)(F)F)cc2)NC(=O)CN(C)C(=O)[C@H](Cc2ccc(Cl)cc2)N(C)C(=O)CN(C)C(=O)CN(C)C1=O [Compound 517] ([NMeA]I[Sar][Sar][NMePhe(4-Cl)][Sar][hPhe(4-CF3)]L[NMeS](X47)[NMeL]D-Pyrrolidide; lactam N-11)	28
CC[C@H](C)[C@@H]1NC(=O)[C@H](CC(C)C)N(C)C(=O)C[C@@H](C(=O)N(C)C)N(C)C(=O)[C@H](C2CCCC2)N(C)C(=O)[C@H](C(C)C)NC(=O)[C@H](C)N(C)C(=O)[C@H](CCc2ccc(C(F)(F)F)c(Cl)c2)NC(=O)CN(C)C(=O)[C@H](CC2CCCCC2)N(C)C(=O)[C@@H]2CCN2C(=O)[C@H](C)N(C)C1=O [Compound 102] ([NMeL]I[NMeA][Aze][NMeCha][Sar][hPhe(3-Cl-4-CF3)][NMeA]V[NMeGly(cPent)][NMeD]-NMe2; lactam N-11)	11
C#CC[C@@H]1NC(=O)[C@H](Cc2cccc(I)c2)NC(=O)CN(C)C(=O)[C@H](Cc2ccc(F)cc2)N(C)C(=O)CN(C)C(=O)CN(C)C(=O)[C@H]([C@@H](C)CC)NC(=O)[C@H](CC(C)C)N(C)C(=O)C[C@@H](C(=O)N2CCCCC2)N(C)C(=O)[C@H](CC(C)C)NC(=O)C(C)(C)N(C)C1=O [Compound 1327] ([NMeL]I[Sar][Sar][NMePhe(4-F)][Sar][Phe(3-I)][Pra][NMeAib]L[NMeD]-Piperidide; lactam N-11)	72
CC[C@H](C)[C@@H]1NC(=O)[C@H](CC(C)C)N(C)C(=O)C[C@@H](C(=O)N(C)C)N(C)C(=O)[C@H]([C@@H](C)CC)N(C)C(=O)C2(CCCC2)NC(=O)[C@H](Cc2ccc(I)cc2)N(C)C(=O)[C@H](CCc2ccc(C(F)(F)F)c(Cl)c2)NC(=O)CN(C)C(=O)[C@H](Cc2ccc(C)cc2)N(C)C(=O)[C@@H]2CCN2C(=O)[C@H](C)N(C)C1=O [Compound 1888] ([NMeL]I[NMeA][Aze][NMePhe(4-Me)][Sar][hPhe(3-Cl-4-CF3)][NMePhe(4-I)][Ac5c][NMeI][NMeD]-NMe2; lactam N-11)	53
CC[C@H](C)[C@@H]1NC(=O)[C@H](C)N(C)C(=O)C[C@@H](C)N(C)C(=O)[C@H](CC(C)C)NC(=O)C(C)(C)N(C)C(=O)[C@H](CC(C)C)NC(=O)[C@H](CCc2ccc(C(F)(F)F)c(Cl)c2)NC(=O)CN(C)C(=O)[C@H](Cc2ccc(C(F)(F)F)cc2)N(C)C(=O)[C@@H]2CCN2C(=O)[C@H](C)N(C)C1=O [Compound 1399] (cyclo([Aze][NMePhe(4-CF3)][Sar][hPhe(3-Cl-4-CF3)]L[NMeAib]L[NMedβ3hAla][NMeA]I[NMeA]))	70
CC[C@H](C)[C@@H]1NC(=O)[C@H](CC(C)C)N(C)C(=O)C[C@@H](C(=O)N(C)C)N(C)C(=O)[C@H]([C@@H](C)CC)N(C)C(=O)C2(CCCC2)NC(=O)[C@H](Cc2ccc(Br)cc2)N(C)C(=O)[C@H](CCc2ccc(C(F)(F)F)c(Cl)c2)NC(=O)CN(C)C(=O)[C@H](Cc2ccc(C)cc2)N(C)C(=O)[C@@H]2CCN2C(=O)[C@H](C)N(C)C1=O [Compound 1964] ([NMeL]I[NMeA][Aze][NMePhe(4-Me)][Sar][hPhe(3-Cl-4-CF3)][NMePhe(4-Br)][Ac5c][NMeI][NMeD]-NMe2; lactam N-11)	36
CC[C@H](C)[C@@H]1NC(=O)[C@H](CC(C)C)N(C)C(=O)C[C@@H](C(=O)N(C)C)N(C)C(=O)[C@H]([C@@H](C)CC)N(C)C(=O)[C@H](C)NC(=O)[C@H](CCN2CCCC(F)(F)C2)N(C)C(=O)[C@H](CCc2ccc(C(F)(F)F)c(Cl)c2)NC(=O)CN(C)C(=O)[C@H](Cc2ccc(C)cc2)N(C)C(=O)[C@@H]2CCN2C(=O)[C@H](C)N(C)C1=O [Compound 1135] ([NMeL]I[NMeA][Aze][NMePhe(4-Me)][Sar][hPhe(3-Cl-4-CF3)][NMeAbu(3,3-F2-piperidino)]A[NMeI][NMeD]-NMe2; lactam N-11)	5.8
